In patent US20120107248A1, “IMAGING GASTROINTESTINAL VOLUMES AND MOTILITY” (MAYO FOUNDATION FOR MEDICAL EDUCATION AND RESEARCH, priority 2009, published 2012):

How the values were obtained:
[1] = in vivo; cited from earlier work
gastric wall = experiment: Abdominal MRI studies in mice with automated segmentation (Example 5); assay type: in vivo
Procedure: Ten abdominal MRI studies in mice were performed under three conditions in sequential order: fasting pre-contrast, fasting post-contrast, and postprandial post-contrast (after feeding with 80 μL egg yolk). Five studies each were conducted with a commercially-available gadolinium contrast agent (gadopentetic acid, Magnevist™) and with Gd-DOTA-3COOH-S-Pantoprazole. Mice were administered 2.5 mg of Magnevist or Gd-DOTA-3COOH-S-Pantoprazole in a volume of 10 μL intravenously. […] In these images the gastric lumen is marked “s.” The images were analyzed by standard techniques (i.e., full-width-half-maximum method). Following administration of Magnevist, the uptake signal increased diffusely, as shown by the arrow. […] In the Gd-DOTA-3COOH-S-Pantoprazole study, the algorithm only identified the stomach boundary after contrast, i.e., fasting and postprandial images, but the conjugate was capable of discriminating the stomach wall from its contents and surrounding tissues. Comparison of gastric wall signal intensity over time after intravenous Magnevist and Gd-DOTA-3COOH-S-Pantoprazole is shown in FIG. 9. Data were sampled at 120 equidistant points around the gastric wall.

| splenic uptake / gastro-splenic boundary (gastric wall; 2.5 mg intravenously, FIG. 7) | Compound | blood clearance time [1] | gastric wall signal and automated segmentation of the gastric outline (gastric wall; 2.5 mg intravenously, full-width-half-maximum method, FIG. 6) | gastric wall signal intensity over time: difference between fasting post contrast and postprandial post contrast images (gastric wall; 120 equidistant points around the gastric wall, FIG. 9) | gastric wall thickness measurements (gastric wall; segmentation algorithm, FIG. 7 and FIG. 8) |
| --- | --- | --- | --- | --- | --- |
| – | O=C([O-])CN(CCN(CC(=O)[O-])CC(=O)O)CCN(CC(=O)[O-])CC(=O)O.[Gd+3] [Gd(DTPA), gadolinium diethylenetriaminepentaacetate] | approximately 2 minutes | – | – | – |
| marked splenic uptake | CNC[C@H](O)[C@@H](O)[C@H](O)[C@H](O)CO.CNC[C@H](O)[C@@H](O)[C@H](O)[C@H](O)CO.O=C([O-])CN(CCN(CC(=O)[O-])CC(=O)O)CCN(CC(=O)[O-])CC(=O)O.[Gd+3] [Magnevist, gadopentetic acid, reference compound] | – | could not accurately identify the gastric outline | higher difference | overestimates stomach wall thickness |
